We go through two compounds from US20090221436A1, “PROCESS FOR DETERMINING TARGET FUNCTION AND IDENTIFYING DRUG LEADS” (priority 2000, published 2009).

In assay [1] the target is T1, P38 MAP kinase (Homo sapiens, UniProt Q16539).
T1 construct: purchased Sigma
The assay is described as follows: HPLC based Chemical Array Assay: protein-bound compounds separated from free compounds, UV and mass spectrum of protein fraction. Particulars: for identity by mass spectrum of the compound extracted from the mixture and released from the protein: 5 uM P38 MAP kinase + 5 uM mixture of Quinine and 86002, Diol column. It counts as binding. How it is done: (§1) Drug-like chemical compounds representing a collection of drug-like chemical scaffolds (Sigma-Aldrich, ICN, Calbiochem) were weighed and mixed to a final concentration of 20 uM each in 50 mM ammonium acetate pH 7, 10% methanol. 1 uM to 20 uM tubulin or P38 MAP kinase (Sigma) were dispensed into HPLC low volume sample cuvettes (Waters) and mixed with 0.5 uM to 20 uM compounds.
(§2) The compounds were eluted using an acetonitrile gradient past a UV detector and into a TOF mass spectrometer (Micromass LCT). […] In other mass spectrometry instruments, fragmentation can be achieved in a collision cell. The fragmentation pattern which is characteristic for each compound consists of the larger parent peak and other peaks representing fragments of the chemical compound or their isotopes. […] Alternatively, one or more characteristic isotope(s) of the parent peak representing the molecular weight of the compound was compared with the standard to identify the compound that bound the protein target. In another alternative analysis, the parent peak representing the molecular weight of the compound was itself compared with the standard to identify the compound. Sometimes, the combination of these methods was also used to identify the compound.

Assay [2] relates to tubulin. Described as above. It counts as binding. Conditions: 10 compound mixture 0.5 uM each, tubulin 0, 5 and 20 uM, GFF II column. As to the method: as §1, §2
The target in assay [3] is T1, P38 MAP kinase. Particulars: stated as a known property of the ligand; cited from earlier work.

T1 sequence (Q16539 whole entry): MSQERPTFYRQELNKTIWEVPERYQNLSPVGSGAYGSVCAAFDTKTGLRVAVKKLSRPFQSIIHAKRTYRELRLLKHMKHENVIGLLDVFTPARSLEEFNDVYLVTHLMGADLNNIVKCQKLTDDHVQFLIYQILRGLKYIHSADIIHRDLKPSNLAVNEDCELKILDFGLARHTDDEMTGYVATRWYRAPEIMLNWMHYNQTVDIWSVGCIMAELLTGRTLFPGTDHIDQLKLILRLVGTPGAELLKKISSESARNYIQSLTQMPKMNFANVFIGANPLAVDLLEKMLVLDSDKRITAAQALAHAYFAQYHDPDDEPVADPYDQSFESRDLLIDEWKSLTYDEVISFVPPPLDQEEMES

Consider `Fc1ccc(-c2nc3n(c2-c2ccncc2)CCS3)cc1` [SKB86002], for which the “mass spectrum of the collected protein fraction compared with the standard” value in assay [1] (5 uM P38 MAP kinase + 5 uM compound alone, Diol column) is on record as “corresponded to the 86002 standard”. In assay [1], the “identity by mass spectrum of the compound extracted from the mixture and released from the protein” value was “identified as 86002”. The “reduction of the compound's UV peak (unbound compound) with increasing P38” value was “concentration dependant reduction” in assay [1] (2-compound mixture 5 uM each, P38 0, 2.5, 5 and 10 uM, Diol column); “concentration dependent reduction” in assay [1] (10 compound mixture 0.5 uM each, P38 0, 3.5 and 5 uM, GFF II column). Besides, in assay [1] (10 compound mixture 0.5 uM each, GFF II column), the “level of the compound's characteristic peaks in the mass spectrum of the protein fraction” value was “at a level far higher than other peaks”. Also, the “level of the compound's characteristic peak in the mass spectrum of the protein fraction” value in assay [1] (100 compound mixture 20 uM each, P38 2 uM, GFF II column) was “at a level far higher than other peaks”. The “reduction of the compound's UV peak (unbound compound) with increasing tubulin” value in assay [2] was “negligible reduction”. Further, the “affinity for the P38 MAP kinase protein target” value in assay [3] is listed as “micromolar affinity”.

Regarding `C=C[C@H]1CN2CC[C@H]1C[C@H]2[C@H](O)c1ccnc2ccc(OC)cc12.Cl` [quinine, quinine monohydrochloride], in assay [1], the “identity by mass spectrum of the compound extracted from the mixture and released from the protein” value was “not quinine”.
